Assay results reported in patent publication US8895733B2 (Novartis AG, priority 2010, dated 2014).
Counter-ions that a name gives are not always drawn.

Molecular target: T1, Nav 1.7 (Homo sapiens, UniProt Q15858)
T1 construct: expressed in transfected cells
Assay: Whole-cell voltage clamp electrophysiology, automated patch clamp (marker c in Table of Examples)
Assay type: cell-based
Settings: marker c = Automated patch clamp data; read-out: Nav 1.7 activity
Text: a.IonWork Quattro data, b=Manual patch clamp data, c=Automated patch clamp data M=Method
Whole-Cell Voltage Clamp Electrophysiology Assay
Patch-clamp electrophysiology is considered the gold standard technique for investigation of ion channel function and pharmacology. Using this method, sodium channel currents can be measured in cells, which stably (or transiently) express the sodium channel subtype of interest. Application of compounds during such experiments provides a functional measure of the activity and potency of compounds affecting the ion channel of interest.
Electrophysiological studies can be performed using automated or manual patch-clamp techniques. Automated patch-clamp instruments suitable for this work include the Ion Works HT (MDS), Ion Works Quattro (MDS), PatchLiner (Nanion technologies), Port-A-Patch (Nanion technologies), QPatch (Sophion) or any other suitable platform.
For recording in automated patch-clamp instruments, cells expressing the voltage-gated sodium channel subtype of interest are dispensed in appropriate chips (plates with more than one recording chambers each containing one or more apertures to generate whole-cell patches), as provided by the manufacturer. Typically, the whole-cell perforated patch configuration is used for probing the pharmacology of compounds in automated patch-clamp electrophysiology on sodium channels. Extracellular and intracellular buffers for such experiments are composed according to the literature, or according to the instructions provided by the manufacturer of the instruments. Test solutions, which contain the compounds to be tested, are applied to the cells expressing the sodium channel of interest by a pipetting system, typically integrated into the robots.
A suitable voltage stimulus protocol is used to activate voltage-gated sodium channel proteins of interest. A typical stimulus protocol may consist of sweeps of sequential voltage pulses starting from a holding potential (i.e. −65 mV), to a more positive and depolarising test pulse potential (i.e. −10 mV) and finally to a more negative and hyperpolarising potential (i.e. −100 mV). According to the biophysics of the voltage-gated ion channel of interest and interest in channel configuration the voltages and durations of the pulses as well as the overall frequency of sweeps applied might vary. Accordingly, a stimulus protocol was designed to assess compounds due to their potential to block NaV1.7 channels primarily in inactivated state. Selectivity over other voltage-gated sodium channel members was assessed by protocols that reflect the native function of the channels (i.e. heart rate or firing of neurons).

T1 sequence (Q15858 whole entry): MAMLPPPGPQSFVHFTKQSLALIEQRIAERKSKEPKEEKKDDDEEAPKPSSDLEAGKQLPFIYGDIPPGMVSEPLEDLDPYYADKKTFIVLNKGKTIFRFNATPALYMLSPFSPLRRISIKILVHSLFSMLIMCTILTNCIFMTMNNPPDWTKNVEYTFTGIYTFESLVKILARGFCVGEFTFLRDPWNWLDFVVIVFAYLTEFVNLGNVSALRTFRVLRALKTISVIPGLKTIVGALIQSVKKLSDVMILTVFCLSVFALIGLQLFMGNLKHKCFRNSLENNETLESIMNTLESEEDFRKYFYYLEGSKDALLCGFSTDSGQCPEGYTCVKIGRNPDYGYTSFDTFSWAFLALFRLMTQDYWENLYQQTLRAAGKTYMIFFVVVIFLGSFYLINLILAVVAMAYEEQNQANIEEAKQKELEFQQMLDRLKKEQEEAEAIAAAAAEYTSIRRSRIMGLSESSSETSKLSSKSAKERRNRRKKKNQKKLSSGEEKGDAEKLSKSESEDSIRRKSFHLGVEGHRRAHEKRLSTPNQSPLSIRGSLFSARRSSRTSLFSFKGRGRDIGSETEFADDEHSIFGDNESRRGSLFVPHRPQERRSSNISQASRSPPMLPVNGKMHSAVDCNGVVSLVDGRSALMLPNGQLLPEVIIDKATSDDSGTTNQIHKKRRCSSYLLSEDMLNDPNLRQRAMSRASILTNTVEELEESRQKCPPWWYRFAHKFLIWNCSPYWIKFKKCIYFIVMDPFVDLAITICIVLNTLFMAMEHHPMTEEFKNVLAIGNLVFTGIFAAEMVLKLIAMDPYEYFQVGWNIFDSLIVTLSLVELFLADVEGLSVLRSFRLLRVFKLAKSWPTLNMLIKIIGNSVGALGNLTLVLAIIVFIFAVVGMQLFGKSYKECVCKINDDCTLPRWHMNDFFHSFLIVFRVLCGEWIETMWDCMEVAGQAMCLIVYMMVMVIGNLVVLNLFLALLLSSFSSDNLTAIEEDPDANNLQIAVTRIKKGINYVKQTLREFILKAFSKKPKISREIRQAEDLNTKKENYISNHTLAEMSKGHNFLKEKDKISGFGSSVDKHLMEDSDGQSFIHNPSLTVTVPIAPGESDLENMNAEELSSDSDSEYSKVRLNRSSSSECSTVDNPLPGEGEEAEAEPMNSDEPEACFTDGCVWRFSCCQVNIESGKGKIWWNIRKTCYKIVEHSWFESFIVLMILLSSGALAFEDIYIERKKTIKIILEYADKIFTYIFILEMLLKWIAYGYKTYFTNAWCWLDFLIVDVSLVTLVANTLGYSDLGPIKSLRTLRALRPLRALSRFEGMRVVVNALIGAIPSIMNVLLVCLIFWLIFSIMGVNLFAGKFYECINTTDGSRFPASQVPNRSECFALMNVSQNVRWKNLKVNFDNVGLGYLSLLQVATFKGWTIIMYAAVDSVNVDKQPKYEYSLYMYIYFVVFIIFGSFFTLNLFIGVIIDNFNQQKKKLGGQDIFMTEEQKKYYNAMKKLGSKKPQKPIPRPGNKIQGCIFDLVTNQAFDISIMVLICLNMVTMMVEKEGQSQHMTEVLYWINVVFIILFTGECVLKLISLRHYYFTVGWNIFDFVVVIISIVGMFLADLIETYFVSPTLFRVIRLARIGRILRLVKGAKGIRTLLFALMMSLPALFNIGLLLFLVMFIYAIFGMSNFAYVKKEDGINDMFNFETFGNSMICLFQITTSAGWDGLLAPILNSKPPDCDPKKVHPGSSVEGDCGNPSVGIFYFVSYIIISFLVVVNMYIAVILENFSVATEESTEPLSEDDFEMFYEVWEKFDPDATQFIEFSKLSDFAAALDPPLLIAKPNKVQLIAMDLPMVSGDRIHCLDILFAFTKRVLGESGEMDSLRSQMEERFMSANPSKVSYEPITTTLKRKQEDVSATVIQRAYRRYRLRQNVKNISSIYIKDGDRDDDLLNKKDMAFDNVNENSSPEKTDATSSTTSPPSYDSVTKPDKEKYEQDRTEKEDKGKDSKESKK

| IC50 [µM] | SMILES |
| --- | --- |
| 2.09 | CN(c1ccccc1)c1nc(N)nc(-c2noc([C@@H]3CCCN3)n2)n1 [Example 438, 2-N-methyl-2-N-phenyl-6-{5-[(2S)-pyrrolidin-2-yl]-1,2,4-oxadiazol-3-yl}-1,3,5-triazine-2,4-diamine hydrochloride] |
| 9.93 | Cc1ncc(-c2nc(-c3nc(N)nc(N(C)c4ccccc4)n3)no2)cn1 [Example 467, 2-N-methyl-6-[5-(2-methylpyrimidin-5-yl)-1,2,4-oxadiazol-3-yl]-2-N-phenyl-1,3,5-triazine-2,4-diamine] |
| 7.1 | CN(c1ccccc1)c1nc(N)nc(-c2noc(C3CCN(S(=O)(=O)C4CC4)CC3)n2)n1 [Example 506, 6-{5-[1-(cyclopropanesulfonyl)piperidin-4-yl]-1,2,4-oxadiazol-3-yl}-2-N-methyl-2-N-phenyl-1,3,5-triazine-2,4-diamine] |
| 0.0525 | CN(c1ccccc1)c1nc(N)nc(-c2noc(-c3ccc(OCCOCC(F)(F)F)nc3)n2)n1 [Example 366, 2-N-Methyl-2-N-phenyl-6-(5-{6-[2-(2,2,2-trifluoroethoxy)ethoxy]pyridin-3-yl}-1,2,4-oxadiazol-3-yl)-1,3,5-triazine-2,4-diamine] |
| 3.29 | CC(C)S(=O)(=O)N1CCC(c2nc(-c3nc(N)nc(N(C)c4ccccc4)n3)no2)C1 (stereo not drawn) [Example 201, 2-N-methyl-2-N-phenyl-6-{5-[1-(propane-2-sulfonyl)pyrrolidin-3-yl]-1,2,4-oxadiazol-3-yl}-1,3,5-triazine-2,4-diamine] |
| 0.211 | CC(OCC(F)(F)F)c1ccc(-c2nc(-c3nc(N)nc(Nc4ccccc4)n3)no2)cn1 (stereo not drawn) [Example 212, 2-N-phenyl-6-(5-{6-[1-(2,2,2-trifluoroethoxy)ethyl]pyridin-3-yl}-1,2,4-oxadiazol-3-yl)-1,3,5-triazine-2,4-diamine] |
| 0.31 | CN(c1ccccc1)c1nc(N)nc(-c2noc(-c3ccc(N4CCCCC4)nc3)n2)n1 [Example 473, 2-N-methyl-2-N-phenyl-6-{5-[6-(piperidin-1-yl)pyridin-3-yl]-1,2,4-oxadiazol-3-yl}-1,3,5-triazine-2,4-diamine] |
| 0.139 | CN(c1nc(N)nc(-c2noc(-c3ccc(OCC(F)(F)F)nc3)n2)n1)c1ccccc1F [Example 408, 2-N-(2-fluorophenyl)-2-N-methyl-6-{5-[6-(2,2,2-trifluoroethoxy)pyridin-3-yl]-1,2,4-oxadiazol-3-yl}-1,3,5-triazine-2,4-diamine] |
| 0.631 | Nc1nc(Nc2ccccc2)nc(-c2noc(C3CCN(S(=O)(=O)C4CC4)CC3)n2)n1 [Example 513, 6-{5-[1-(cyclopropanesulfonyl)piperidin-4-yl]-1,2,4-oxadiazol-3-yl}-2-N-phenyl-1,3,5-triazine-2,4-diamine] |
| 1.22 | CN(c1ccccc1)c1nc(N)nc(-c2noc(-c3ncccc3OCC(F)(F)F)n2)n1 [Example 486, 2-N-methyl-2-N-phenyl-6-{5-[3-(2,2,2-trifluoroethoxy)pyridin-2-yl]-1,2,4-oxadiazol-3-yl}-1,3,5-triazine-2,4-diamine] |
| 0.082 | Cc1cccc(N(C)c2nc(N)nc(-c3noc(-c4ccc(OCC(F)(F)F)nc4)n3)n2)c1 [Example 412, 2-N-methyl-2-N-(3-methylphenyl)-6-{5-[6-(2,2,2-trifluoroethoxy)pyridin-3-yl]-1,2,4-oxadiazol-3-yl}-1,3,5-triazine-2,4-diamine] |
| 0.513 | CN(c1ccccc1)c1nc(N)nc(-c2noc(-c3ccc(C(=O)NCC(F)(F)F)nc3)n2)n1 [Example 280, 5-(3-{4-Amino-6-[methyl(phenyl)amino]-1,3,5-triazin-2-yl}-1,2,4-oxadiazol-5-yl)-N-(2,2,2-trifluoroethyl)pyridine-2-carboxamide] |
| > 9.98 | CN(c1ccccc1)c1nc(N)nc(-c2noc([C@H]3[C@@H]4C(=O)N(Cc5ccccc5)C(=O)[C@@H]43)n2)n1 [Example 386, (1R,5S,6S)-6-(3-{4-Amino-6-[methyl(phenyl)amino]-1,3,5-triazin-2-yl}-1,2,4-oxadiazol-5-yl)-3-benzyl-3-azabicyclo[3.1.0]hexane-2,4-dione] |
| 2.51 | Nc1nc(Nc2ccccc2)nc(-c2noc(C(=O)NC3CCCC3)n2)n1 [Example 218, 3-[4-amino-6-(phenylamino)-1,3,5-triazin-2-yl]-N-cyclopentyl-1,2,4-oxadiazole-5-carboxamide] |
| > 9.35 | COC1CN(c2nc(-c3nc(N)nc(N(C)c4ccccc4)n3)no2)C1 [Example 493, 6-[5-(3-methoxyazetidin-1-yl)-1,2,4-oxadiazol-3-yl]-2-N-methyl-2-N-phenyl-1,3,5-triazine-2,4-diamine] |
| 8.91 | CN(c1ccccc1)c1nc(N)nc(-c2noc(-c3cnccn3)n2)n1 [Example 468, 2-N-methyl-2-N-phenyl-6-[5-(pyrazin-2-yl)-1,2,4-oxadiazol-3-yl]-1,3,5-triazine-2,4-diamine] |
| 3.62 | COC[C@@H]1CCCN1c1nc(-c2nc(N)nc(N(C)c3ccccc3)n2)no1 [Example 446, 6-{5-[(2S)-2-(methoxymethyl)pyrrolidin-1-yl]-1,2,4-oxadiazol-3-yl}-2-N-methyl-2-N-phenyl-1,3,5-triazine-2,4-diamine] |
| 9.25 | Nc1nc(Nc2ccccc2)nc(-c2noc(C(=O)N3Cc4ccccc4C3)n2)n1 [Example 230, 6-{5-[(2,3-dihydro-1H-isoindol-2-yl)carbonyl]-1,2,4-oxadiazol-3-yl}-2-N-phenyl-1,3,5-triazine-2,4-diamine] |
| 1.2 | COc1ccc(CNC(=O)c2nc(-c3nc(N)nc(N(C)c4ccccc4)n3)no2)cn1 [Example 260, 3-{4-amino-6-[methyl(phenyl)amino]-1,3,5-triazin-2-yl}-N-[(6-methoxypyridin-3-yl)methyl]-1,2,4-oxadiazole-5-carboxamide] |
| 7.71 | NC(=O)c1nc(-c2nc(N)nc(Nc3ccccc3)n2)no1 [Example 222, 3-[4-amino-6-(phenylamino)-1,3,5-triazin-2-yl]-1,2,4-oxadiazole-5-carboxamide] |
| 9.53 | CN(c1ccccc1)c1nc(N)nc(-c2noc([C@@H]3CCCN3C(=O)CC3CC3)n2)n1 [Example 450, 1-[(2S)-2-(3-{4-amino-6-[methyl(phenyl)amino]-1,3,5-triazin-2-yl}-1,2,4-oxadiazol-5-yl)pyrrolidin-1-yl]-2-cyclopropylethan-1-one] |
| 3.27 | CN(c1ccccc1)c1nc(N)nc(-c2noc(C(=O)N3CCC(=CCC(F)(F)F)CC3)n2)n1 [Example 322, 2-N-methyl-2-N-phenyl-6-(5-{[4-(3,3,3-trifluoropropylidene)piperidin-1-yl]carbonyl}-1,2,4-oxadiazol-3-yl)-1,3,5-triazine-2,4-diamine] |
| 0.044 | Nc1nc(Nc2ccccc2)nc(-c2noc(-c3ccc(COCC4CC4)nc3)n2)n1 [Example 211, 6-(5-{6-[(cyclopropylmethoxy)methyl]pyridin-3-yl}-1,2,4-oxadiazol-3-yl)-2-N-phenyl-1,3,5-triazine-2,4-diamine] |

Same assay, conditions: marker c: Automated patch clamp data; read-out: Nav 1.7 activity

| IC50 [µM] | SMILES |
| --- | --- |
| 2.73 | CN(c1ccccc1)c1nc(N)nc(-c2noc(C3CCN(S(C)(=O)=O)CC3)n2)n1 [Example 160, 6-[5-(1-methanesulfonylpiperidin-4-yl)-1,2,4-oxadiazol-3-yl]-2-N-methyl-2-N-phenyl-1,3,5-triazine-2,4-diamine] |
| 1.66 | CN(c1ccccc1)c1nc(N)nc(-c2noc(-c3ccc(C#N)nc3)n2)n1 [Example 78, 5-{3-[4-Amino-6-(methyl-phenyl-amino)-[1,3,5]triazin-2-yl]-[1,2,4]oxadiazol-5-yl}-pyridine-2-carbonitrile] |
| 1.14 | CN(c1ccccc1)c1nc(N)nc(-c2noc(C3CCOCC3)n2)n1 [Example 57, N-Methyl-N-phenyl-6-[5-(tetrahydro-pyran-4-yl)-[1,2,4]oxadiazol-3-yl]-[1,3,5]triazine-2,4-diamine] |
| 0.923 | Cc1ccccc1-c1nc(-c2nc(N)nc(N(C)c3ccccc3)n2)no1 [Example 27, N-Methyl-N-phenyl-6-(5-o-tolyl-[1,2,4]oxadiazol-3-yl)-[1,3,5]triazine-2,4-diamine] |
| 0.547 | Cc1ccc(-c2nc(-c3nc(N)nc(N(C)c4ccccc4F)n3)no2)o1 [Example 91, N-(2-Fluoro-phenyl)-N-methyl-6-[5-(5-methyl-furan-2-yl)-[1,2,4]oxadiazol-3-yl]-[1,3,5]triazine-2,4-diamine] |
| 0.813 | CCN(c1ccccc1)c1nc(N)nc(-c2noc(-c3cccc(OC)c3)n2)n1 [Example 94, N-Ethyl-6-[5-(3-methoxy-phenyl)-[1,2,4]oxadiazol-3-yl]-N-phenyl-[1,3,5]triazine-2,4-diamine] |
| 7.63 | COc1ccc(-c2nc(-c3nc(N)nc(N(C)c4cccc(C)c4)n3)no2)c(OC)c1 [Example 188, 6-[5-(2,4-dimethoxyphenyl)-1,2,4-oxadiazol-3-yl]-2-N-methyl-2-N-(3-methylphenyl)-1,3,5-triazine-2,4-diamine] |
